For orientation: Ki means the equilibrium dissociation constant of an inhibitor or competing ligand from its target.

In data set [1] the test system is Cynomolgus monkey. In words: Ratio of drug level in thalamus to striatum in cynomolgus monkey. The conditions noted are these: in vivo. In kind it is ADME, organism-based, Macaca fascicularis.
Data set [2] has as its target Sodium-dependent noradrenaline transporter (Homo sapiens, UniProt P23975).
For data set [3], the system named is Cynomolgus monkey. In words: Ratio of drug level in cerebellum to locus coreuleus in cynomolgus monkey at 1.35 mCi after 93 mins. In kind it is ADME, organism-based, Macaca fascicularis. The conditions noted are these: in vivo, 1.55 h.
The subject of data set [4] is Cynomolgus monkey. In words: Ratio of drug level in cerebellum to thalamus in cynomolgus monkey at 1.35 mCi after 93 mins. In kind it is ADME, organism-based, Macaca fascicularis. Conditions: in vivo, 1.55 h.
The subject of data set [5] is Brain. In words: Drug uptake in cynomolgus monkey brain assessed as radio activity at 1.35 mCi after 42 mins. The data set is classed as ADME, tissue-based, Macaca fascicularis. The conditions noted are these: in vivo, 0.7 h.
Data set [6] relates to Cynomolgus monkey. In words: Ratio of drug level in cerebellum to mesencephalon in cynomolgus monkey at 1.35 mCi after 93 mins. Conditions: in vivo, 1.55 h. In kind it is ADME, organism-based, Macaca fascicularis.
Data set [7] has as its system Cynomolgus monkey. In words: Ratio of drug level in cerebellum to striatum in cynomolgus monkey at 1.35 mCi after 93 mins. In kind it is ADME, organism-based, Macaca fascicularis. The conditions noted are these: in vivo, 1.55 h.
The subject of data set [8] is Cynomolgus monkey. In words: Ratio of drug level in cerebellum to occipital cortex in cynomolgus monkey at 1.35 mCi after 93 mins. The data set is classed as ADME, organism-based, Macaca fascicularis. The conditions noted are these: in vivo, 1.55 h.
The subject of data set [9] is Brain. In words: Drug uptake in cynomolgus monkey brain assessed as radio activity at 1.35 mCi after 24 mins. In kind it is ADME, tissue-based, Macaca fascicularis. Conditions: in vivo, 0.4 h.
The subject of data set [10] is Cynomolgus monkey. In words: Ratio of drug level in striatum to lower brainstem in cynomolgus monkey at 1.41 mCi after 93 mins. In kind it is ADME, organism-based, Macaca fascicularis. The conditions noted are these: in vivo, 1.55 h.
The test system of data set [11] is Cynomolgus monkey. In words: Ratio of drug level in striatum to cerebellum in cynomolgus monkey at 1.41 mCi after 93 mins. Conditions: in vivo, 1.55 h. The data set is classed as ADME, organism-based, Macaca fascicularis.
The subject of data set [12] is Cynomolgus monkey. In words: Ratio of drug level in NET-rich thalamus to NET-poor striatum in cynomolgus monkey. In kind it is ADME, organism-based, Macaca fascicularis. The conditions noted are these: in vivo.
Data set [13] concerns Brain. In words: Drug uptake in cynomolgus monkey brain assessed as radio activity at 1.41 mCi after 80 mins. The data set is classed as ADME, tissue-based, Macaca fascicularis. Conditions: in vivo.
The subject of data set [14] is Cynomolgus monkey. In words: Ratio of drug level in striatum to occipital cortex in cynomolgus monkey at 1.41 mCi after 93 mins. Conditions: in vivo, 1.55 h. In kind it is ADME, organism-based, Macaca fascicularis.
Data set [15] deals with Cynomolgus monkey. In words: Ratio of drug level in striatum to thalamus in cynomolgus monkey at 1.41 mCi after 93 mins. The data set is classed as ADME, organism-based, Macaca fascicularis. Conditions: in vivo, 1.55 h.
The test system of data set [16] is Cynomolgus monkey. In words: Ratio of drug level in striatum to mesencephalon in cynomolgus monkey at 1.41 mCi after 93 mins. Conditions: in vivo, 1.55 h. In kind it is ADME, organism-based, Macaca fascicularis.

Chain of Sodium-dependent noradrenaline transporter (P23975 whole entry): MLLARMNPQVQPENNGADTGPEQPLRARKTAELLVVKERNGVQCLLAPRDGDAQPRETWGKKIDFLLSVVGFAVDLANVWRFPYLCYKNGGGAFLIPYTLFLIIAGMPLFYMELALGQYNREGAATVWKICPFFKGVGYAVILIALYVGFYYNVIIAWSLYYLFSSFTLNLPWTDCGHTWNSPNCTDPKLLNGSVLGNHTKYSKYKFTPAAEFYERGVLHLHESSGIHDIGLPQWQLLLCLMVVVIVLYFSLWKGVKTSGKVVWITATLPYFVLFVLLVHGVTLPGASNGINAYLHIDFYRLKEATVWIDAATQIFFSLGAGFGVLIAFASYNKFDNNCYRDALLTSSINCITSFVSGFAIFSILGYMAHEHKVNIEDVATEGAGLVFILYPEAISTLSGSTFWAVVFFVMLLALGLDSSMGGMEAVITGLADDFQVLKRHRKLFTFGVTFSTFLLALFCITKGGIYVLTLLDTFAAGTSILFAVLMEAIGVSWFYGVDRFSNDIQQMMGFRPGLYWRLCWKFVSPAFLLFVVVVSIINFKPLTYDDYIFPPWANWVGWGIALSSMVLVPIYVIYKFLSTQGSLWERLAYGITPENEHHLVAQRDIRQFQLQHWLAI

Turning to `[11CH3]NC[C@@H](O)CC12CCC(c3ccccc31)c1ccccc12`, the Ratio in data set [1] is 1.5.
In turn, `COc1ccc(F)cc1C[C@](O)(C1CCCC1)[C@@H]1CNCCO1` registered a Ki in [2] of 10.8 nM.
Same read-out and setting: the same measure for `COc1ccccc1O[C@@H](c1ccccc1)[C@@H]1CNCCO1`: 7.93 nM.
Turning to `[11CH3]Oc1ccc(F)cc1C[C@](O)(C1CCCC1)[C@@H]1CNCCO1`, the Ratio in [3] was 1.3; in data set [4], 1.35; in [5] it was 3.5 %ID; in [6], 1.2; in [7], 1.2; in data set [8], 1.3. In addition, the Drug uptake in data set [9] is given as 3.5 %ID.
In the case of `CNC[C@@H](O)CN1c2ccccc2CCc2ccccc21`, the Ki in [2] turned out to be 8.29 nM.
On to `[11CH3]NC[C@@H](O)CN1c2ccccc2CCc2ccccc21`, for which the Ratio in data set [10] is on record as 1.2; in data set [11], 1; in data set [12] it was 1.35; in [14], 1.35; in [15] it was 1.35; in [16], 1.2. Also, in [13], the Drug uptake was 1.1 %ID.

Values taken from ChEMBL document CHEMBL1145526, “Synthesis of 11C-labelled (R)-OHDMI and CFMME and their evaluation as candidate radioligands for imaging central norepinephrine transporters with PET” (Bioorg Med Chem, 2007).
